The results in this text go back to PubChem BioAssay (NCI).

Holding throughout (test): NCI tumour cell line growth inhibition, 48 h
The subject of assay [1] is LOX IMVI melanoma.
Assay [2] has as its system SW-620 colon.
Assay [3] concerns COLO 205 colon.
The subject of assay [4] is RPMI-8226 leukemia.
Assay [5] relates to NCI-H522 lung.
Assay [6] concerns U251 CNS.
Assay [7] has as its system 786-0 renal.
The subject of assay [8] is SNB-19 CNS.
The test system of assay [9] is M14 melanoma.
The test system of assay [10] is HT29 colon.

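Where inhibition never reached the appropriate level, the endpoint shown equals the highest concentration tested. Otherwise, values were interpolated linearly from a five-concentration, 48-hour dose response in 96-well plates. At the GI50, growth is halved. TGI marks complete inhibition of growth.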

With `O=[N+]([O-])C=C(c1ccc(Cl)cc1)c1ccc(Cl)cc1`, the TGI stood at 25.5 µM in assay [1]; 31 µM in assay [2]; 12.2 µM in assay [3]; 34 µM in assay [4]; 28.8 µM in [5]; 29.8 µM in assay [6]. Moreover, the TGI in [7] was 30.6 µM; in assay [8], 36.5 µM; in assay [9], 30.5 µM; in [10] it was 35.5 µM.
Turning to `CC1=C(SCCC(=O)OC(C[Se]C2=C(C)C(=O)c3ccccc3C2=O)C(=O)NCCCCCC(=O)OCc2ccccc2)C(=O)c2ccccc2C1=O` (stereo not given), the GI50 in assay [1] was 2.75 µM; in [2] it was 2.43 µM; in assay [3], 7.95 µM; in assay [4], 2.65 µM; in [5] it was 3.96 µM; in assay [6], 4.09 µM. Further, the GI50 in assay [7] is 4.68 µM; in [8], 3.82 µM; in [9], 2.01 µM; in assay [10], 3.56 µM. Also, the TGI in assay [1] was 11.5 µM; in assay [2], 9.34 µM; in assay [3] it was 22.6 µM; in assay [4], 7.76 µM; in assay [5], 15 µM; in [6], 13.6 µM. For the same compound, the TGI amounted to 14 µM in assay [7], 14 µM in assay [8], 4.22 µM in [9] and 13.3 µM in assay [10].
For the compound `Nc1ccc(C(=O)N/C(=C\c2cccc([N+](=O)[O-])c2)c2nc3[nH]c(=S)[nH]c(=O)c3[nH]2)cc1`, the TGI was above 100 µM in [1]; above 100 µM in [2]; above 100 µM in assay [3]; above 100 µM in assay [4]; above 100 µM in assay [5]; above 85.6 µM in [6]. For the same compound, the TGI in assay [7] was above 93.1 µM; in [8], above 93.1 µM; in assay [9], above 100 µM; in assay [10], above 100 µM.
Regarding `COc1ncc(Nc2ncc([C@@H](C)N3CCN(S(C)(=O)=O)CC3)cc2-c2nc(C)nc(N)n2)cc1F`, the GI50 in [1] is 0.32 µM; in assay [2] it was 2.82 µM; in [3], 0.122 µM; in assay [4] it was 7.13 µM; in assay [5], 1.09 µM; in assay [6], 0.385 µM. Further, the GI50 was 0.0192 µM in assay [7], 0.325 µM in [8], 2.16 µM in [9] and 0.0355 µM in [10]. The TGI was 12.5 µM in [1]; above 100 µM in assay [2]; 15.3 µM in assay [3]; above 100 µM in [4]; 59.1 µM in assay [5]; above 100 µM in [6]. For the same compound, the TGI is 2.86 µM in assay [7], above 66.8 µM in assay [8], 38.8 µM in assay [9] and above 100 µM in [10].
Take `COc1ccc(/C(COc2ccc3oc(-c4ccccc4)cc(=O)c3c2)=N\O)cc1`: the GI50 is 0.0322 µM in assay [1]; 0.382 µM in [2]; 0.606 µM in [3]; 0.196 µM in assay [4]; 1.87 µM in assay [5]; 0.13 µM in [6]. Moreover, the GI50 is 0.855 µM in assay [7], 8.57 µM in assay [8], 0.321 µM in assay [9] and 0.783 µM in assay [10]. In addition, the TGI in assay [1] was 2.69 µM; in assay [2], above 50 µM; in assay [3] it was 19.2 µM; in [4], 20 µM; in assay [5], 39.5 µM; in assay [6], 12.2 µM. In addition, the TGI in assay [7] is above 35.6 µM; in assay [8] it was above 36.5 µM; in assay [9], above 50 µM; in assay [10], above 50 µM.
On to `COc1ccc(CN2c3ccccc3Sc3ccccc32)c(C(F)(F)F)c1`, for which the GI50 is 0.832 µM in assay [1]; 0.443 µM in [2]; 0.64 µM in assay [3]; 3 µM in assay [4]; 0.314 µM in [5]; 0.431 µM in assay [6]. Further, the GI50 in assay [7] is 9.05 µM; in assay [8] it was 3.8 µM; in assay [9], 0.446 µM; in assay [10], 0.681 µM. Besides, the TGI was 33.3 µM in [1]; above 100 µM in assay [2]; 3.08 µM in [3]; 31.5 µM in assay [4]; 2.84 µM in [5]; 27.4 µM in assay [6]. Besides, the TGI is above 100 µM in [7], above 100 µM in assay [8], above 100 µM in assay [9] and 10.9 µM in assay [10].
